Source: patent publication US20200030355A1, “COMBINATION THERAPY FOR TREATING CANCER” (Epizyme, Inc., priority 2014, published 2020)
Read-outs that look alike come from different tables or passages of the source.

How the values were obtained:
MOLM-13 (MLL-AF9) [1] = test: Compound A2 7-day pre-treatment, then Compound A2 and Compound 1 for 3 days, CellTiter-Glo (Example 9); format: cell-based, human; settings: Compound A2 7 days, then both for 3 days, n=2
Protocol: (§1) At the endpoint, cell viability was measured via ATP content using CellTiter-Glo®.

SKM-1 (non-MLL-r) = test: as above; format: cell-based, human; settings: Compound A2 7 days, then both for 3 days, n=2
Protocol: as §1

ERK1 = ERK1 (Homo sapiens, UniProt P27361); test: ERK kinase activity inhibition; format: biochemical
Chain of ERK1 (P27361 whole entry): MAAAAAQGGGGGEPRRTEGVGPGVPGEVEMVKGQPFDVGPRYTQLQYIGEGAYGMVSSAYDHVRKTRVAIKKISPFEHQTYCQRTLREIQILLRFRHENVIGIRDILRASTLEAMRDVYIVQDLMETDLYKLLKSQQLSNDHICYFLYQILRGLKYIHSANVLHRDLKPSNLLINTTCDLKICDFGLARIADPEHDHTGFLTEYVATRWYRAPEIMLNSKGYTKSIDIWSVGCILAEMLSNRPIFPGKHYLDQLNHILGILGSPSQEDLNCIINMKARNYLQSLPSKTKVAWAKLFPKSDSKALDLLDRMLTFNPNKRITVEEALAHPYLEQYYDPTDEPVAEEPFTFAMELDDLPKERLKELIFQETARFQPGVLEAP
Protocol: (§2) Compound 1 is a potent inhibitor of the kinase activities of ERK1 and ERK2. In some embodiments, Compound 1 inhibits one or both of ERK1 and ERK2 with an IC50 of about 10 to about 20 nM.
(§3) The activity of Compound 1, and pharmaceutically acceptable salts thereof, as an inhibitor of one or both of an ERK1 and ERK2 kinase, or a mutant thereof, may be assayed in vitro, in vivo or in a cell line. In vitro assays include assays that determine inhibition of downstream phosphorylation, changes in gene expression, subsequent functional markers and consequences, and/or kinase activity of one or both of activated ERK1 and ERK2 kinase, or a mutant thereof. Alternate in vitro assays quantitate the ability of the test compound to bind to one or both of ERK1 and ERK2. Test compound binding may be measured by radiolabeling the test compound prior to binding, isolating one or both of the compound/ERK1 complex and the compound/ERK2 complex, and determining the amount of radiolabel bound. Alternatively, test compound binding may be determined by running a competition experiment where test compounds are incubated with one or both of ERK1 and ERK2 kinase bound to known radioligands. […]

ERK2 = ERK2 (Homo sapiens, UniProt P28482); test: ERK kinase activity inhibition; format: biochemical
Chain of ERK2 (P28482 whole entry): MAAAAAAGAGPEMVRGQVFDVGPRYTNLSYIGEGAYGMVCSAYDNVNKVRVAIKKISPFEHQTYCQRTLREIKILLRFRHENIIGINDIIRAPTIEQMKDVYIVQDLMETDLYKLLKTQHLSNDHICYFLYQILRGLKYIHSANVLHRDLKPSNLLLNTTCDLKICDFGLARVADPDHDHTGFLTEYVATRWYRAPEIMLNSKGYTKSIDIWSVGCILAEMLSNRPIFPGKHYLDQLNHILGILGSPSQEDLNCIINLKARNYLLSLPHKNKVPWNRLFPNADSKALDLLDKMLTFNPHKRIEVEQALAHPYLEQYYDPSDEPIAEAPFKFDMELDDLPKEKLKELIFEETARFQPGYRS
Protocol: as §2, §3

258 kinases = test: Kinase selectivity analysis; format: biochemical; settings: analysis of 258 kinases
Protocol: as §2

[2] = system: BRAF-mutant cancer cell lines; test: Cancer cell panel screening, anti-proliferative activity; format: cell-based; settings: 25 of 27 BRAF-mutant cancer cell lines tested
Description: (§4) Bioinformatic analyses indicate that tumors with activating mutations of BRAF are particularly sensitive to Compound 1. […] In the same cancer cell panel screening, 28 of 37 (76%) KRAS-mutant cancer cell lines were sensitive to Compound 1. […] This is of particular importance as resistance to BRAF inhibition has been commonly observed in human patients. […] Without wishing to being bound by any particular theory, it is believed that inhibitors of one or both of ERK1 and ERK2, or a mutant thereof, such as Compound 1, or pharmaceutically acceptable salts thereof, provide effective salvage therapy.

[3] = system: KRAS-mutant cancer cell lines; test: as above; format: cell-based; settings: 28 of 37 KRAS-mutant cancer cell lines
Description: as §4

[4] = system: A375 melanoma cells that have acquired in vitro resistance to BRAF and MEK inhibition; test: Inhibitory activity against resistant melanoma cells; format: cell-based
Description: as §4

MOLM-13 (MLL-AF9) [5] = test: Combination proliferation study with Compound A2 (ATP/CellTiter-Glo, Chou-Talalay combination index); format: cell-based, human
Method in brief: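 Viability by CellTiter-Glo ATP luminescence; Fa relative to DMSO controls. Combination index by Chou-Talalay (CI<1 synergy, =1 additive, >1 antagonism).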

MV4-11 (MLL-AF4) = test: as above; format: cell-based, human
[6] = system: SKM-1 (non-MLL-rearranged AML); test: as above; format: cell-based, human
Protocol: (§5) Graphs representing values of combination index (CI) versus Fractional effect (Fa) known as Fa-CI plots were generated and synergy was evaluated.
as §5
(§6) The HP-D300 digital dispenser (Tecan) was used to dispense compounds in a combinatorial matrix. […] Cell viability was measured via ATP content using CellTiter-Glo® (Promega).
(§7) Viability was determined using CellTiter-Glo® (Promega).
MV4-11 cells were maintained in IMDM supplemented with 10% fetal bovine serum. MOLM-13 and SKM-1 cells were maintained in Roswell Park Memorial Institute medium (RPMI) supplemented with 10% fetal bovine serum. They were cultured in flasks or plates in a humidified 5% CO2 atmosphere.
Proliferation studies were performed using MOLM-13, MV4-11 and SKM-1 cell lines in vitro to evaluate the cancer cell killing effect of a combination of two agents together on cell growth. Initial proliferation studies were performed to determine the IC50 values of a given compound in each cell line. The cell counts were measured by ATP quantitation using the Promega Cell Titer Glo kit and luminescence values correspond to the amount of ATP in a given well.
Compounds evaluated for synergy in the co-treatment phase were tested in a range which was bracketed around the IC50's. The compounds were plated to a 96 well plate in a matrix format which includes increasing concentrations of each drug in the combination in a constant ratio, in addition to the effect of each compound alone in the study. Cells were seeded and grown in the log-linear phase for 3 or 7 days in the cotreatment phase. Maximum and minimum inhibition (DMSO alone) controls were used in each plate to calculate fraction affected (Fa) of a test well. DMSO concentration was kept at 0.1% v/v. The drug combination analysis was performed utilizing the Chou-Talalay method. Synergy was determined using the software package Calcusyn by Biosoft. The combination index (CI) is the term used to describe the level of synergy or antagonism in a given test system. A combination index less than one indicates synergy, and a CI greater than one indicates antagonism.
The drug combination analysis was performed using the Chou-Talalay method. Graphs representing values of combination index (CI) versus Fractional effect (Fa) known as Fa-CI plots were generated and synergy was evaluated.

EOL-1 (MLL-PTD) = test: Combination proliferation study with Compound A2; format: cell-based, human
Protocol: as §6, §7

KOPM-88 (MLL-PTD) = test: Combination proliferation study with Compound A2; format: cell-based, human
Protocol: as §6, §7

MOLM-13 cells = test: CD11b and CD14 differentiation marker expression by flow cytometry; format: cell-based, human; settings: single agents
Protocol: A Guava EasyCyte HT™ flow cytometer was used to measure DNA content, Annexin V staining and cell surface expression of CD14 and CD11b markers on Days 10 and 14.
On Day 0 MOLM-13 cells are seeded at 3,000 cells/mL. On Day 7 and Day 10 MOLM-13 cells are counted and reseeded at 50,000 cells/mL. […] On Day 10 They were redosed again. On Day 14 the experiment was terminated. Cells were sampled for CD14 and CD11b analysis on Days 7, 10 and 14.
On day 7, 10, and 14, cells were collected for analysis. The cells were prepared by washing twice in PBS, followed by fixation in 4% formaldehyde for ten minutes at 37° C. After fixation cells were washed and blocked with blocking buffer for 10 minutes at room temperature. Cells were then incubated in presence of anti-CD14, anti-CD11b or anti-IgG antibody for 1 hour at room temperature while rotating. Cells were washed, re-suspended in PBS and 5,000 events were analyzed using ExpressPro software on the GuavaCyte Plus System.

MOLM-13 (MLL-AF9) [7] = test: EPZ-5676 7-day pre-treatment, then second compound 72 hours, growth inhibition GI100 shift; primary screen and retest (Example 7); format: cell-based, human
Protocol: (§8) Cells were then equilibrated in incubators for 24 hours before treatment with a second compound. Treated assay plates were incubated with a second compound for 72 hours. After this time, plates were developed for endpoint analysis using ATPLite to measure ATP content, which is used as an indicator of cell viability.
(§9) Cells were then treated with a second compound for 72 hours. After this time, plates were developed for endpoint analysis using Cell Titer Glo to measure ATP content, which is used as an indicator of cell viability.
(§10) “N/D” means the GI100 of the second compound could not be determined for both conditions and “-” means not tested.
(§11) Growth Inhibition (GI) as a measure of cell viability: The cell viability of vehicle was measured at the time of dosing the second agent (T0) and after seventy-two hours (T72). […] A GI 200% represents complete death of all cells in the culture well. Compounds reaching an activity plateau of GI 200% are considered cytotoxic. GI is calculated by applying the following test and equation: […]
(§12) where T is the signal measure for a test article, V is the vehicle-treated control measure, and V0 is the vehicle control measure at time zero.

SKM-1 (non-MLLr) = test: as above; format: cell-based, human; settings: 300 nM EPZ-5676 7-day pre-treatment
Protocol: as §8, §9, §10, §11, §12

OCI-AML-4 (MLL-ENL) = test: as above; format: cell-based
Protocol: as §8, §9, §10, §11, §12

ML-2 (MLL-AF6) = test: EPZ-5676 7-day pre-treatment, then second compound 72 hours, growth inhibition GI100 shift (Example 7); format: cell-based
Protocol: as §8, §9, §10, §11, §12

[8] = 300 nM EPZ-5676 7-day pre-treatment, second compound 72 hours, ATPLite

C=CC(=O)Nc1cc(C)ccc1Nc1nc(Nc2cc(OC)ncc2C)ncc1C(F)(F)F [Compound 1, N-(2-((2-((2-methoxy-5-methylpyridin-4-yl)amino)-5-(trifluoromethyl)pyrimidin-4-yl)amino)-5-methylphenyl)acrylamide]
Combination (Compound A2 and Compound 1) (MOLM-13 (MLL-AF9) [1]): Synergy
Combination (Compound A2 and Compound 1) (SKM-1 (non-MLL-r)): No benefit
IC50 (ERK1): 10 to 20 nM
IC50 (ERK2): 10 to 20 nM
Kinase selectivity profile (258 kinases): good overall kinase selectivity profile
Cell lines sensitive to Compound 1 inhibition (GI50 <1 μM) [2]: 93%
Cell lines sensitive to Compound 1 [3]: 76%
Activity against resistant A375 melanoma cells [4]: inhibitory activity

COc1cccc2c1C(=O)c1c(O)c3c(c(O)c1C2=O)C[C@@](O)(C(C)=O)C[C@@H]3O[C@H]1C[C@H](N)[C@H](O)[C@H](C)O1 [Daunorubicin]
Combination with Compound A2, MOLM-13 (MLL-AF9) (MOLM-13 (MLL-AF9) [5]): Synergy (key: Synergy: Drug synergy was statistically defined by CI values less than 1; Antagonistic: antagonism by CI>1; Additive: additive effect by CI equal to 1)
Combination with Compound A2 when Compound A2 is washed out prior to the addition of the second agent (MOLM-13 (MLL-AF9) [5]): synergistic anti-proliferative activity was maintained
Combination with Compound A2 when Compound A2 is washed out prior to the addition of the second agent (MV4-11 (MLL-AF4)): synergistic anti-proliferative activity was maintained
Combination with Compound A2, SKM-1 AML: Non-rearranged [6]: did not act synergistically
Effect of Compound A2 on the antiproliferative activity of the second agent [6]: did not affect
Combination with Compound A2, EOL-1 (MLL-PTD) (EOL-1 (MLL-PTD)): Synergy (key: Synergy: Drug synergy was statistically defined by CI values less than 1; Antagonistic: antagonism by CI>1; Additive: additive effect by CI equal to 1)
Combination with Compound A2, KOPM-88 (MLL-PTD) (KOPM-88 (MLL-PTD)): Synergy (key: Synergy: Drug synergy was statistically defined by CI values less than 1; Antagonistic: antagonism by CI>1; Additive: additive effect by CI equal to 1)
Differentiation markers CD11b and CD14 (MOLM-13 cells): The same effect was observed

CC(=O)Nc1cccc(-n2c(=O)n(C3CC3)c(=O)c3c(Nc4ccc(I)cc4F)n(C)c(=O)c(C)c32)c1 [Trametinib]
Combination with Compound A2, MOLM-13 (MLL-AF9) (MOLM-13 (MLL-AF9) [5]; 7 Day Cotreatment Model, Table 4): Synergy (Drug synergy was statistically defined by CI values less than 1)
GI100 (MOLM-13 (MLL-AF9) [7]): 0.03
Combination with EPZ-5676, MOLM-13 (MLL-AF9) Retest (MOLM-13 (MLL-AF9) [7]; 150 nM EPZ-5676 7-day pre-treatment, second compound 72 hours, Cell Titer Glo): Synergy (considered synergistic if the GI100 (Growth inhibition 100) value of the second compound decreased by 2-fold or more when EPZ-5676 was added as compared to the DMSO control)
Combination with EPZ-5676, MOLM-13 (MLL-AF9) Primary screen (MOLM-13 (MLL-AF9) [7]; [8]): Synergy (considered synergistic if the GI100 (Growth inhibition 100) value of the second compound decreased by 2-fold or more when EPZ-5676 was added as compared to the DMSO control)
Combination with EPZ-5676, SKM-1 (non-MLLr) Primary screen (SKM-1 (non-MLLr); ATPLite): Synergy (considered synergistic if the GI100 (Growth inhibition 100) value of the second compound decreased by 2-fold or more when EPZ-5676 was added as compared to the DMSO control)
Combination with EPZ-5676, SKM-1 (non-MLLr) Retest (SKM-1 (non-MLLr); Cell Titer Glo): Synergy (considered synergistic if the GI100 (Growth inhibition 100) value of the second compound decreased by 2-fold or more when EPZ-5676 was added as compared to the DMSO control)
GI100 (OCI-AML-4 (MLL-ENL)): 0.009
Combination with EPZ-5676, OCI-AML-4 (MLL-ENL) Primary screen (OCI-AML-4 (MLL-ENL); [8]): Synergy (considered synergistic if the GI100 (Growth inhibition 100) value of the second compound decreased by 2-fold or more when EPZ-5676 was added as compared to the DMSO control)
Combination with EPZ-5676, OCI-AML-4 (MLL-ENL) Retest (OCI-AML-4 (MLL-ENL); 300 nM EPZ-5676 7-day pre-treatment, second compound 72 hours, Cell Titer Glo): Synergy (considered synergistic if the GI100 (Growth inhibition 100) value of the second compound decreased by 2-fold or more when EPZ-5676 was added as compared to the DMSO control)
GI100 (ML-2 (MLL-AF6)): 0.001
